In article PMC8910733, “Cyclin-Dependent Kinases (CDKs) and the Human Cytomegalovirus-Encoded CDK Ortholog pUL97 Represent Highly Attractive Targets for Synergistic Drug Combinations” (International Journal of Molecular Sciences, 2022):
“And” between values parts separate entries of the source, which are not always exact repeats. Equal values may be shown once. Read-outs that look alike come from different tables or passages of the source.

Tests used:
[1] = neutral red assay (NRA), drug-induced cytotoxicity; format: cell-based, human; settings: human
Experimental: (§1) Drug induced cytotoxicity in HFFs was measured as a reduction of cell viability determined by neutral red uptake assay (NRA), as described previously. Briefly, HFFs treated with compounds for 7 d were incubated with a final concentration of 40 μg/mL neutral red (Sigma Aldrich, St. Louis, MO, USA) for 3 h. Incorporated neutral red was released from the cells by incubation with destaining solution (50% ethanol, 49% H2O, 1% acetic acid) and subsequently quantitated in a microplate reader (PerkinElmer, Waltham, MA, USA) by fluorescence measurement using 560/630 nm for excitation/emission, respectively.

[2] = system: mock-infected primary human foreskin fibroblasts (HFFs); experiment: neutral red assay (NRA), drug-induced cytotoxicity; format: cell-based; settings: single treatment; mock-infected HFFs, 7 d; mean ± SD
Experimental: as §1

HCMV AD169-GFP [3] = experiment: Loewe additivity fixed-dose assay
Experimental: (§2) Loewe additivity was assessed using an adapted protocol of the HCMV GFP-based replication assay [21, 61] described previously [1]. HFFs were seeded at app. 1.6 × 10^5 cells/well in 12-well culture plates (four plates per assay) and infected on the following day with HCMV AD169-GFP [61] in a dilution resulting in 25% GFP-positive cells at 7 d p.i. (i.e., 1× TCID25^7d). […] Standard protocol comprised a serial dilution of six concentrations/single compound, starting with app. 4–8 × EC50, and a 1:2 serial dilution of eight concentrations of the combination, starting with a combination of half of the highest concentrations of both single dilution series. All infections were performed in biological duplicates. Cells were lysed by the addition of 200 µL lysis buffer/well 7 d p.i., and cell suspensions were mixed and transferred to a 96-well plate. Centrifugation was performed at 3000 rpm for 15 min and clear lysates were subjected to automated GFP quantitation in a Victor X4 microplate reader (PerkinElmer, Waltham, MA, USA). Antiviral efficacy (mean of duplicate measurement of biological duplicates) was expressed as the percentage of solvent control and entered into the CompuSyn software (Version 1.0 [65]; ComboSyn, Inc., Paramus, NJ, USA). Only experiments with an r value > 0.90 and EC50 values close to previously determined concentrations were accepted.

HCMV AD169-GFP [4] = experiment: antiviral drug treatment in cyclin H knock-out HFFs; settings: CycH KO HFFs
Experimental: (§3) To achieve a transient knock-out of cyclin H, app. 1.5 × 10^5 HFFs/well were grown in 12-well culture plates and, starting the following day, incubated for 24 h with 0.5 mL of lentiviral supernatant (a mixture containing all six gRNAs described in 4.9) supplemented with 0.5 mL MEM and 7.5 µg/mL polybrene (Sigma Aldrich, St. Louis, MO, USA) per well. Virus supernatant was replaced by fresh media 24 h later and cells were used for infection experiments (see 4.5 and 4.6) on the following day.
(§4) 12-well culture plates and treated with lentiviral supernatants to achieve a CRISPR/C as9 -media ted
(§5) transient cyclin H knock-down. Subsequently, cells were dir ectly infected with HCMV AD169-GF P for
(§6) 90 min , then fresh medium, supplemented with indicated concentrations of compounds, was added. Cells
(§7) were harvested and lysed 7 d pos t-infection and vira l GFP reporter signa ls were measured in
(§8) quadruplicate. Data are presented as mean values of biological duplicates, adjusted in percent to the
(§9) respective solvent DMSO c on t r ol (ctrl ).

HCMV AD169-GFP [5] = experiment: antiviral drug treatment in wild-type HFFs; settings: WT HFFs
Experimental: as §3, §4, §5, §6, §7, §8, §9

HCMV AD169-GFP [6] = experiment: confocal quantitation of GFP reporter signal in HFFs; settings: MBV 10 µM, LDC4297 0.1 µM, R25 1 µM, abemaciclib 1 µM; untreated infected = 100%, mock = 0%
HCMV ΔUL97-GFP BAC213 = experiment: GFP replication assay with deletion mutant
Experimental: Primary human foreskin fibroblasts (HFFs, derived from clinical samples, Children’s Hospital, Erlangen, Germany) were grown in Eagle’s minimal essential medium (MEM) supplemented with 1 × GlutaMAX^TM (both Thermo Fisher Scientific, Waltham, MA, USA), 10 μg/mL gentamicin and 10% fetal bovine serum (FBS, Capricorn, Ebsdorfergrund, Germany). […] Cultured cells were maintained at 37 °C, 5% CO2 and 80% humidity. All cell culture was regularly monitored for absence of mycoplasma contamination (Lonza™ Mycoalert™, Thermo Fisher Scientific, Waltham, MA, USA). […]
Loewe additivity was assessed using an adapted protocol of the HCMV GFP-based replication assay [21, 61] described previously [1]. […] Centrifugation was performed at 3000 rpm for 15 min and clear lysates were subjected to automated GFP quantitation in a Victor X4 microplate reader (PerkinElmer, Waltham, MA, USA). Antiviral efficacy (mean of duplicate measurement of biological duplicates) was expressed as the percentage of solvent control and entered into the CompuSyn software (Version 1.0 [65]; ComboSyn, Inc., Paramus, NJ, USA). Only experiments with an r value > 0.90 and EC50 values close to previously determined concentrations were accepted.

CDK7 = experiment: confocal immunofluorescence quantitation of CDK7 signal in HFFs; settings: HCMV AD169-GFP-infected HFFs, 7 d; MBV 10 µM, LDC4297 0.1 µM, R25 1 µM, abemaciclib 1 µM; untreated mock-infected = 100%; mean ± SEM
HCMV AD169-GFP [7] = settings: for SI: selectivity index CC50/EC50
Experimental: (§10) Primary human foreskin fibroblasts (HFFs, derived from clinical samples, Children’s Hospital, Erlangen, Germany) were grown in Eagle’s minimal essential medium (MEM) supplemented with 1 × GlutaMAX^TM (both Thermo Fisher Scientific, Waltham, MA, USA), 10 μg/mL gentamicin and 10% fetal bovine serum (FBS, Capricorn, Ebsdorfergrund, Germany). […] Cultured cells were maintained at 37 °C, 5% CO2 and 80% humidity. All cell culture was regularly monitored for absence of mycoplasma contamination (Lonza™ Mycoalert™, Thermo Fisher Scientific, Waltham, MA, USA). Recombinant HCMV AD169 expressing green fluorescent protein (AD169-GFP, [61]) and recombinant ORF-UL97-deleted HCMV AD169 expressing green fluorescent protein (ΔUL97-GFP BAC213 [48]) were used for in vitro replication assays.
as §2

HCMV AD169-GFP [8] = experiment: microbe, parasite or virus in culture
Experimental: as §10, §2

[9] = mock-infected primary human foreskin fibroblasts (HFFs), single treatment, mock-infected HFFs, 7 d, mean ± SD, read-out: CC50
[10] = Human betaherpesvirus 5, AD169, single treatment, HCMV AD169-GFP in HFFs, mean ± SD

CC(=O)N[C@@H]1CCC[C@H](C(=O)Nc2cc(-c3cnn4c3CC(C)(C)C4)c(Cl)cn2)C1 [AZD4573]
CC50 at 7 d [1, 9]: 350 ± 90 nM

CC[C@H](Nc1nc(NCc2cnc(C)cc2C)c2ncn(C(C)C)c2n1)[C@@H](C)O [CYC065]
CC50 at 7 d [1, 9]: < 100 nM

CC(C)c1cnn2c(NCc3ccccc3-n3cccn3)nc(OC3CCCNC3)nc12 (stereo not shown) [LDC4297]
CC50 [2]: > 10000 nM
EC50 (HCMV AD169-GFP [3]; read-out: EC50 single drugs, single drug, run beside the combination of the same table section): 13 nM and 9 nM and 16 nM
EC90 (HCMV AD169-GFP [3]; read-out: EC90 single drugs, single drug, run beside the combination of the same table section): 97 nM and 147 nM and 88 nM and 124 nM
mean replication (in % solvent control) (HCMV AD169-GFP [4]; 0.003 µM): 85%
mean replication (in % solvent control) (HCMV AD169-GFP [4]; 0.025 µM): 32%
mean replication (in % solvent control) (HCMV AD169-GFP [4]; 0.1 µM): 4%
mean replication (in % solvent control) (HCMV AD169-GFP [5]; 0.003 µM): 91%
mean replication (in % solvent control) (HCMV AD169-GFP [5]; 0.025 µM): 23%
mean replication (in % solvent control) (HCMV AD169-GFP [5]; 0.1 µM): 7%
HCMV AD169-GFP-specific reporter signal (GFP intensity) (HCMV AD169-GFP [6]): below 25%
EC50 (HCMV ΔUL97-GFP BAC213; deletion mutant ΔUL97 BAC213 (Figure 5B)): 61 ± 8 nM
CDK7 intensity (CDK7): 172% ± 7%
EC50 (HCMV AD169-GFP [7]; parental HCMV AD169-GFP, in parallel with ΔUL97 mutant (Figure 5A)): 16 ± 5 nM
SI (HCMV AD169-GFP [7]; single treatment): >1000
EC50 (HCMV AD169-GFP [7]; single treatment, HCMV AD169-GFP in HFFs, mean ± SD): 9 ± 2 nM

CC(C)Nc1nc2cc(Cl)c(Cl)cc2n1[C@H]1O[C@@H](CO)[C@H](O)[C@@H]1O [MBV, maribavir]
EC50 (HCMV AD169-GFP [8]; Human betaherpesvirus 5, AD169, parental HCMV AD169-GFP, in parallel with ΔUL97 mutant (Figure 5A)): 220 ± 260 nM
EC50 (HCMV AD169-GFP [8]; [10]): 350 ± 420 nM
CC50 at 7 d [1, 9]: > 100000 nM
mean replication (in % solvent control) (HCMV AD169-GFP [4]; 0.31 µM): 21%
mean replication (in % solvent control) (HCMV AD169-GFP [4]; 2.5 µM): 9%
mean replication (in % solvent control) (HCMV AD169-GFP [4]; 10 µM): 6%
mean replication (in % solvent control) (HCMV AD169-GFP [5]; 0.31 µM): 20%
mean replication (in % solvent control) (HCMV AD169-GFP [5]; 2.5 µM): 6%
mean replication (in % solvent control) (HCMV AD169-GFP [5]; 10 µM): 3%
HCMV AD169-GFP-specific reporter signal (GFP intensity) (HCMV AD169-GFP [6]): below 25%
EC50 (HCMV ΔUL97-GFP BAC213; Human betaherpesvirus 5): > 20000 nM
SI (HCMV AD169-GFP [7]; single treatment): >250

Cc1c(Br)c(Br)c2c3c1nc(N1CCNCC1)n3CCC2 [SEL120]
EC50 (HCMV AD169-GFP [8]; [10]): 79 ± 1 nM
CC50 at 7 d [1, 9]: 5900 ± 3850 nM
SI (HCMV AD169-GFP [7]; single treatment): 75

CC(C)(C)c1cnc(CSc2cnc(NC(=O)C3CCN(CC(=O)NCCOCCOCCOCCNc4cccc5c4C(=O)N(C4CCC(=O)NC4=O)C5=O)CC3)s2)o1 (stereo not shown) [THAL-SNS032]
EC50 (HCMV AD169-GFP [8]; [10]): 25 ± 2 nM
CC50 at 7 d [1, 9]: 140 ± 60 nM
SI (HCMV AD169-GFP [7]; single treatment): 6

CCc1cnn2c(NCc3ccc[n+]([O-])c3)cc(N3CCCC[C@H]3CCO)nc12 [dinaciclib]
CC50 at 7 d [1]: < 100 nM

CN1CCC(c2c(O)cc(O)c3c(=O)cc(-c4ccccc4Cl)oc23)C1CO (stereo not shown) [riviciclib]
CC50 at 7 d [1, 9]: 1600 ± 60 nM

CC(C)c1cnn2c(NCc3ccccc3)cc(NC[C@H]3CCNC[C@@H]3O)nc12 [samuraciclib]
CC50 at 7 d ([1]; single treatment, mock-infected HFFs, 7 d, mean ± SD, read-out: CC50): 500 ± 210 nM

CVT-313
CC50 [2]: 5570 ± 50 nM

SY1365
CC50 [2]: < 100 nM
